Columns and labels:
[1] = test system: E. faecalis; experiment: Determination of sugar: colour change on medium with indicator dye; assay type: cell-based, Enterococcus faecalis; details: sugar in medium with bromocresol purple indicator dye
Excerpt: (§1) To detect the consumption of sugar by bacteria, the inventors added to the medium of the present invention an indicator dye whose colour will vary according to the pH of the medium. Indeed, when the bacteria consume sugar, there is an acidification of the medium, which leads to a change in the indicator dye. To determine the most appropriate indicator dyer, the inventors tested several, including the following three: phenol red, bromocresol green and bromocresol purple. Based on concentrations in media already containing one of these indicator dyes, the inventors first chose to test a concentration of 25 mg/L [12] for each of the chosen indicators.
(§2) Once the indicator dye was chosen, the inventors were able to determine which sugar was most suitable for the present invention.
(§3) Finally, the last sugar tested was mannitol. […] The inventors therefore chose mannitol as sugar for the formulation of said invention, at a concentration of 10 g/L, a concentration frequently found in culture media.

[2] = test system: E. hirae; experiment: as above; assay type: cell-based, Enterococcus hirae; details: sugar in medium with bromocresol purple indicator dye
Excerpt: as §1, §2, §3

[3] = test system: E. faecium; experiment: as above; assay type: cell-based, Enterococcus faecium; details: sugar in medium with bromocresol purple indicator dye
Excerpt: as §1, §2
This sugar cannot therefore be used to isolate E. hirae.
as §3

[4] = test system: Enterococcus faecium; parameters: key: Variable refers to the fact that consumption of this sugar by E. faecium is strain dependent; details: Table 1, literature data; cited from earlier work
[5] = Dilution of nalidixic acid in water; assay type: physicochemical
Procedure: In addition, the concentration of nalidixic acid was reduced from 250 mg/L to no more than 100 mg/L due to its poor dilution in water above 100 mg/L and colistin, a polypeptide antibiotic of the polymyxin family with action on Gram-negative bacteria, was added at a concentration of 25 mg/L to compensate.

[6] = test system: E. hirae; experiment: Growth on media with different salt concentrations; assay type: cell-based, Enterococcus hirae
Procedure: (§4) Since enterococci are resistant to high salt concentrations, in order to eliminate some Gram-positive bacteria other than enterococci and Gram-negative bacteria resistant to the inhibitors mentioned above, different concentrations of salt (sodium chloride) were tested to find the most appropriate one to add to the formulation of the present invention. Four concentrations were tested (60 g/L, 65 g/L, 70 g/L and 75 g/L).

[7] = test system: E. faecium; experiment: Growth on media with different salt concentrations; assay type: cell-based, Enterococcus faecium; details: 60 g/L, 65 g/L, 70 g/L and 75 g/L salt
Procedure: as §4

[8] = test system: E. faecalis; experiment: Growth on media with different salt concentrations; assay type: cell-based, Enterococcus faecalis; details: 60 g/L, 65 g/L, 70 g/L and 75 g/L salt
Procedure: as §4

In the case of `OC[C@@H](O)[C@@H](O)[C@H](O)[C@H](O)CO` [Mannitol, mannitol], the “Colour change of E. faecalis colonies” value [1] was “change in the colour of the medium and the colonies”, the “Colour change of E. hirae colonies” value [2] was “remained colourless” and the “Colour change of E. faecium colonies” value [3] was “change in the colour of the medium and the colonies”.

For `OC[C@H]1O[C@H](OCC2O[C@@H](O)[C@H](O)[C@@H](O)[C@@H]2O)[C@H](O)[C@@H](O)[C@H]1O` (stereo partly drawn) [Melibiose, melibiose], the “Sugar consumption by Enterococcus faecium” value [4] is listed as “V” and the “Colour change of E. faecium colonies” value [3] is listed as “variable results”.

With `OC[C@H]1O[C@H](OC[C@H]2O[C@H](O[C@]3(CO)O[C@H](CO)[C@@H](O)[C@@H]3O)[C@H](O)[C@@H](O)[C@@H]2O)[C@H](O)[C@@H](O)[C@H]1O` [Raffinose, raffinose] the “Colour change of E. faecalis colonies” value [1] was “no colour change” and the “Colour change of E. faecium colonies” value [3] was “no colour change”.

For `CCn1cc(C(=O)O)c(=O)c2ccc(C)nc21` [nalidixic acid], the “Dilution in water (poor above this concentration)” value [5] was “no more than 100 mg/L”.

In the case of `[Cl-].[Na+]` [sodium chloride], the “Growth of E. hirae” value ([6]; 60 g/L, 65 g/L, 70 g/L and 75 g/L salt) was “had growth for each of the concentrations tested”, the “Size of E. hirae colonies” value ([6]; reading the agars at 24 hours, 60 to 75 g/L salt) was “the higher the salt concentrations, the smaller the colonies” and the “Growth of E. faecium” value [7] was “had growth for each of the concentrations tested”. The “Growth of E. faecalis” value [8] was “had growth for each of the concentrations tested”.
